Reference: PMC10745505 (Molecules, 2023)
Like-named read-outs stand apart in the source and are kept apart here.

What was measured:
influenza virus = tested on: influenza virus; design: method as in PMID 11825310, PMID 9588843; details: usually; cited from earlier work
Solubility = assay type: physicochemical; details: compared with the other complexes
[1] = tested on: Hep-2 (human larynx carcinoma cell line); details: read-out: half-maximal cell inhibition concentration (IC50); Hep-2 cells, MTT, 72 h, concentration range up to 2 mM
Excerpt: (§1) MDCK (Madin–Darby canine kidney, ATCC CCL34), MRC-5 (lung tissue fibroblasts of a human embryo, collection code 112) and Hep-2 (human larynx carcinoma) cell lines were obtained from the Federal Budgetary Research Institution State Research Center of Virology and Biotechnology “Vector” Rospotrebnadzor cell culture collection, Russian Federation and cultured in Eagle’s Minimum Essential Medium (EMEM) and Dulbecco’s Modified Eagle’s Medium (DMEM) in relation to 1:1 supplemented with a 10% fetal bovine serum under a humidified atmosphere (5% CO2 and 95% air) at 37 °C.
(§2) The effect of compounds 1, 2 and 3 on the cells metabolic activity was determined using the 3-[4,5-dimethylthiazol-2-yl]-2,5-diphenyltetrazolium bromide (MTT) colorimetric assay. The Hep-2 and MRC-5 cells were seeded into 96-well plates at 7 × 10^3 cells/well in a medium-containing compound with concentrations from 2 to 0.01 mM and then incubated for 72 h under 5% CO2 atmosphere. After that, 10 μL of the MTT solution (final concentration of MTT is 0.5 mg·mL^−1) was added to each well, and the plates were incubated for a further 4 h. The formazan produced was then dissolved in DMSO (100 μL/well). The optical density of the solutions was measured with a Mindray Microplate Reader MR-96A (Mindray, Shenzhen, China) at a wavelength of 492 nm. The percentage of cell viability was calculated by the formula: (optical density of the solution in the wells after incubation with the compounds/optical density of the control solution) × 100%. Wells with cells incubated in a pure nutrient medium were used as a control.

[2] = tested on: MRC-5 (lung tissue fibroblasts of a human embryo); details: read-out: half-maximal cell inhibition concentration (IC50); MRC-5 cells, MTT, 72 h, concentration range up to 2 mM
Excerpt: as §1, §2

[3] = tested on: influenza A virus, subtype H5N1 (strain A/chicken/Chelyabinsk region/2KL/Russia/2021); assay type: cell-based
MRC-5 cells = assay: Cellular penetration: Mo content in MRC-5 cells by ICP-AES; assay type: cell-based, human; details: for Cellular penetration: MRC-5 cells, 30 min to 48 h incubation, ICP-AES
Description: (§3) The cells were seeded into 6-well plates at concentration of 5 × 10^5 cells/well. The next day, solutions of 1 and 2 were added to the plates to give final concentrations of 1.0 mM and incubated with cells for 30 min, 2, 6, 24 and 48 h. Then, cells were washed three times with a sterile phosphate buffer. The cells were then removed from the wells with trypsin and centrifuged at 1000 rpm for 5 min. After centrifugation, the number of cells in each sample was calculated. The resulting cell suspension was brought to a volume of 300 µL in a sterile buffer so that each sample contained 0.5 million cells.
(§4) Molybdenum content in cells after incubation times was determined on a high-resolution spectrometer iCAP-6500 (Thermo Scientific, Waltham, MA, USA) with a cyclone-type spray chamber and “SeaSpray” nebulizer. The spectra were obtained by axial plasma viewing. Standard operating conditions of the ICP-AES system were following: power = 1150 W, injector inner diameter = 3 mm, carrier argon flow = 0.7 L min^−1, accessorial argon flow = 0.5 L min^−1, cooling argon flow = 12 L min^−1, number of parallel measurements = 3, and integration time = 5 s.

Hep-2 cells = assay: Cellular penetration: Mo content in Hep-2 cells by ICP-AES; assay type: cell-based, human; details: for Cellular penetration: Hep-2 cells, 30 min to 48 h incubation, ICP-AES
Description: as §3, §4

[4] = tested on: MDCK cells (Madin–Darby canine kidney cells); details: absence of virus, up to 500 μM, 72 h
[5] = Stability in solution by changes in electronic absorption spectra; assay type: physicochemical; details: for behaviour in acid solution: HCl, pH~2, two days; for stability in distilled water: pH~6, two days, C~1 mM
Description: Since the compounds are soluble in water, an important factor is their stability in aqueous solutions at different pH. Stability was studied by changes in electronic absorption spectra over two days (C~1 mM, diluted 60 times to record spectra) (Figure 6). […] The most significant changes occur in the acid solution (HCl, pH~2). […] Protonation of the pyrazolate ligands, which occurs in acidic solutions, results in the dissociation of binuclear clusters. […] Unlike the pyrazole, the triazole structure has an additional free nitrogen atom that can be protonated. In this case, protonation of the triazolate ligands and formation of a neutral form [Mo12O28(μ-1,2,4-trz)4(μ-1,2,4-trzH)4] with low solubility apparently occurs. […] The complex can be dissolved back into water by adding any alkali solution, which is confirmed by the preservation of the ^1H NMR spectra (Figure S15). Typically, most POMs are not stable in weakly acidic or alkaline aqueous solutions [26, 27], while the compounds studied show the opposite situation, which is associated with both the structure based on binuclear clusters and their linkages through bridging pyrazolate or triazolate ligands.
Elemental analyses were obtained using a vario MICRO cube analyzer and EuroVector EA3000. Energy-dispersive X-ray spectroscopy (EDS) was performed on a Hitachi TM3000 TableTop SEM (Hitachi High-Technologies Corporation, Tokyo, Japan) with Bruker QUANTAX 70 EDS equipment. FTIR spectra were recorded on a Bruker Vertex 80 as KBr disks. The thermal properties (TGA) were studied on a Thermo Microbalance TG 209 F1 Iris (NETZSCH) from 25 to 800 °C at the heating rate of 10 °C·min^−1 in He flow (30 mL·min^−1). Powder X-ray diffraction patterns were collected on a Philips PW 1820/1710 diffractometer (CuKα radiation, graphite monochromator and Si as an external reference). The absorption spectra (UV–vis) were recorded on an Agilent Cary 60 UV/Vis spectrophotometer.

Influenza A H1N1 = tested on: Influenza A H1N1; design: method as in PMID 24878685; details: Influenza A H1N1, incubation time 48h, cited from earlier work
MDCK cells = tested on: MDCK cells; design: method as in PMID 24878685; details: read-out: IC50 (cytotoxicity against MDCK cells); cited from earlier work
[6] = MRC-5, 1 mM solution (∽2350 µg Mo/5·10^5 cells), 30 minutes
[7] = Hep-2, 1 mM solution (∽2350 µg Mo/5·10^5 cells), 30 minutes

Molecule | EC50 (influenza virus) [µM] | IC50 [1] [µM] | IC50 [2] [µM] | Quantity of Mo accumulated by cells (MRC-5 cells; [6]) [μg Mo/5·105 cells] | Quantity of Mo accumulated by cells (MRC-5 cells; MRC-5, 1 mM solution, 2 hours) [μg Mo/5·105 cells] | Quantity of Mo accumulated by cells (MRC-5 cells; MRC-5, 1 mM solution, 6 hours) [μg Mo/5·105 cells] | Quantity of Mo accumulated by cells (MRC-5 cells; MRC-5, 1 mM solution, 24 hours) [μg Mo/5·105 cells] | Quantity of Mo accumulated by cells (MRC-5 cells; MRC-5, 1 mM solution, 48 hours) [μg Mo/5·105 cells] | Cellular penetration (MRC-5 cells) | Quantity of Mo accumulated by cells (Hep-2 cells; [7]) [μg Mo/5·105 cells] | Quantity of Mo accumulated by cells (Hep-2 cells; Hep-2, 1 mM solution, 2 hours) [μg Mo/5·105 cells] | Quantity of Mo accumulated by cells (Hep-2 cells; Hep-2, 1 mM solution, 6 hours) [μg Mo/5·105 cells] | Quantity of Mo accumulated by cells (Hep-2 cells; Hep-2, 1 mM solution, 24 hours) [μg Mo/5·105 cells] | Quantity of Mo accumulated by cells (Hep-2 cells; Hep-2, 1 mM solution, 48 hours) [μg Mo/5·105 cells] | Cellular penetration (Hep-2 cells) | cytopathic effect on MDCK cells [4] | behaviour in acid solution [5] | stability in distilled water [5] | other results
CCOC(=O)C1=C[C@@H](OC(CC)CC)[C@H](NC(C)=O)[C@@H](N)C1 [oseltamivir] | < 10 |  |  |  |  |  |  |  |  |  |  |  |  |  |  |  |  |  | 
CC(=O)N[C@H]1[C@H]([C@H](O)[C@H](O)CO)OC(C(=O)O)=C[C@@H]1N=C(N)N [zanamivir] | < 10 |  |  |  |  |  |  |  |  |  |  |  |  |  |  |  |  |  | 
(NH4)4[Mo12O28(μ-1,2,3-trz)8]·4H2O [Compound 3] |  |  |  |  |  |  |  |  |  |  |  |  |  |  |  |  |  |  | solubility in water (Solubility): significantly lower solubility in water
(NH4)4[Mo12O28(μ-1,2,4-trz)8]·1.5(1,2,4-trzH)·3H2O [Compound 2] |  | > 2000 | 1810 ± 40 | 0.23 | 0.11 | 0.12 | 0.34 | 0.34 | absence of cell penetration | 0.18 | 0.32 | 0.33 | 0.43 | 0.42 | absence of cell penetration | do not show any significant cytopathic effect | immediately precipitates | high stability | antiviral effect ([3]; MDCK cells in presence of H5N1 virus, concentration range tested up to 500 μM): no effect or insignificant effect; stability in alkaline solution (spectral change) ([5]; NaOH, pH~12, two days): slight change in the absorption intensity
(NH4)4[Mo12O28(μ-pz)8]·1.5pzH·4.5H2O [Compound 1] |  | > 2000 | > 2000 | 0.22 | 0.25 | 0.24 | 0.77 | 0.83 | absence of cell penetration | 0.25 | 0.46 | 0.47 | 0.75 | 0.75 | absence of cell penetration | do not show any significant cytopathic effect | complete destruction | high stability | concentrations at which antiviral effect was found ([3]; MDCK cells in presence of H5N1 virus, 72 h, MTT): above 62.5 μM; EC50 ([3]; presence of H5N1 virus, 72 h, nonlinear regression, read-out: EC50 (50% virus-inhibitory effective concentration as indirectly measured by MDCK cell viability)): 82.4 ± 11.4 µM; decrease in the absorption intensity ([5]; NaOH, pH~12, two days): ~ 10%
Cs2K4Na[SiW9Nb3O40] [POM93] |  |  |  |  |  |  |  |  |  |  |  |  |  |  |  |  |  |  | EC50 (Influenza A H1N1; converted from μg/mL, read-out: EC50): ~2.4 µM; EC50 (Influenza A H1N1): 7.4 ± 1.1 µg/mL; IC50 (MDCK cells): 140 µM
